≈ marks a conversion by molar mass, not a printed value.
Tested on: Mtb BioA over-expression strain (BioA-OE)
Type: cell-based, Mycobacterium tuberculosis

## C=C(CCC(=O)O)c1nc2ccccc2s1 [Compound 13, 4-(benzothiazol-2-yl)pentenoic acid]
  MIC90 BioA-OE: 4.7 µM (≈ 1.1 µg/mL)

— paper PMC4305006 (Chemistry & biology, 2014)
